Values joined by “and” are separate entries in the source; they are usually repeats but may differ in a detail not shown here. Equal entries are not always repeated. After the bases stand the sugars from the 5' end (letter, count) and the backbone: PS all phosphorothioate, else s phosphorothioate and o phosphodiester by linkage. Methylation of C is not given here. e = 2'-O-(2-methoxyethyl) (MOE); k = constrained ethyl (cEt); d = 2'-deoxy (DNA)
Target: APOL1
Conditions: ASO

| Sequence | target mRNA inhibition (A431, 2 µM) | target mRNA inhibition (A431, 0.0625 µM) | target mRNA inhibition (A431, 0.25 µM) | target mRNA inhibition (A431, 1 µM) | further results |
| --- | --- | --- | --- | --- | --- |
| TTTATACCAGTGTCTT (sugars k2 d4 e3 k2 d5, PS) | 88% |  |  |  |  |
| TTCAGAATTTCCACTA (sugars kdddddkekekddddd, PS) | 87% |  |  |  |  |
| AGGGAAATGAACGCAA (sugars k4 d9 k3, PS) |  | 38% | 65% | 85% |  |
| CACATCATTGGGTTAT (sugars kkddddkekekkdddd, PS) | 34% |  |  |  |  |
| GGGTTATGAAATTATT (sugars kkddddekekeddddd, PS) | 88% |  |  |  |  |
| CAGTTTTGTAAGTGCA (sugars kkddddkdkdkddddd, PS) | 95% |  |  | 95% | target mRNA inhibition (A431, 0.04 µM): 41% |
| TCAGATGGGTACTTCT (sugars k2 d4 e4 k2 d4, PS) | 78% |  |  |  |  |
| TTCTCATGGTACAGGA (sugars kkddddkekekkdddd, PS) | 20% |  |  |  |  |
| GCAGTTTTGTAAGTGC (sugars k3 d4 k3 e1 d5, PS) | 76% |  |  |  |  |
| TTTGTAAGTGCAACCA (sugars kekddddeekkddddd, PS) | 99% | 46% | 84% | 96% | target mRNA inhibition (A431, 0.0156 µM): 21% |
| GCAAGGCTAAGTTCCG (sugars k4 d9 k3, PS) |  | 79% | 92% | 97% |  |
| TTGTAAGTGCAACCAA (sugars kkddddkekekkdddd, PS) | 54% |  |  |  |  |
| GTTATGAAATTATTGG (sugars kkddddekekeddddd, PS) | 68% |  |  |  |  |
| TTCTCATGGTACAGGA (sugars k3 d4 k3 e1 d5, PS) | 44% |  |  |  |  |
| GAGTATTGTTTTTGTG (sugars kkddddekekeddddd, PS) | 98% | 78% | 92% | 97% | target mRNA inhibition (A431, 0.0156 µM): 40%; target mRNA inhibition (A431, 0.04 µM): 47% and 50% |
| CACATCATTGGGTTAT (sugars k2 d4 e4 k2 d4, PS) | 54% |  |  |  |  |
| TTTGTAAGTGCAACCA (sugars kkdddddkekeddddd, PS) | 92% | 46% | 78% | 91% | target mRNA inhibition (A431, 0.0156 µM): 36% |
| AGCTTTAAACTCAGGT (sugars kkddddekekeddddd, PS) | 92% |  |  |  |  |
| CACATCATTGGGTTAT (sugars k3 d4 k3 e1 d5, PS) | 78% |  |  |  |  |
| TTTTGTAAGTGCAACC (sugars k2 d4 e3 k2 d5, PS) | 99% |  |  |  |  |
| CAGTCAGCAGGAGTAG (sugars k4 d9 k3, PS) |  | 30% | 54% | 65% |  |

| Sequence | target mRNA inhibition (A431, 2 µM) | target mRNA inhibition (A431, 0.0625 µM) | target mRNA inhibition (A431, 0.25 µM) | target mRNA inhibition (A431, 1 µM) | further results |
| --- | --- | --- | --- | --- | --- |
| TTCTATTAGAGGGCTA (sugars kkddddkdkdkddddd, PS) | 87% |  |  |  |  |
| CTTTAAACTCAGGTGA (sugars kddddkekekeddddd, PS) | 70% |  |  |  |  |
| AGTATTGCCAGCTAAG (sugars k2 d4 e3 k2 d5, PS) | 86% |  |  |  |  |
| TTGTAAGTGCAACCAA (sugars kkkddddkekekdddd, PS) | 35% |  |  |  |  |
| CAAGGCTTTTGATGAC (sugars k4 d9 k3, PS) |  | 28% | 58% | 75% |  |
| AATATCAGAGTGTACC (sugars k4 d9 k3, PS) |  | 51% | 73% | 84% |  |
| TTATATTTGATCCTCA (sugars kkddddekekeddddd, PS) | 96% |  |  |  |  |
| AGATGGGTACTTCTGT (sugars k4 d9 k3, PS) |  | 85% | 88% | 93% |  |
| GGGAATTATGGAATTG (sugars k2 d4 e3 k2 d5, PS) | 86% |  |  |  |  |
| GAATTATGGAATTGCA (sugars k4 d9 k3, PS) |  | 59% | 82% | 92% |  |
| AGCTTTAAACTCAGGT (sugars kkddddkdkdkddddd, PS) | 86% |  |  |  |  |
| TCATTAGTGCTATAGA (sugars k4 d9 k3, PS) |  | 25% | 71% | 86% |  |
| GAGTATTGTTTTTGTG (sugars kekddddeekkddddd, PS) | 90% |  |  |  |  |
| ATTCTATTGGGCCTCA (sugars k4 d9 k3, PS) |  | 28% | 62% | 86% |  |
| CTAATTTTCTGACTGT (sugars kkddddkdkdkddddd, PS) | 84% |  |  |  |  |
| GAAGATTGGCTCTGGC (sugars kddddkekekeddddd, PS) | 21% |  |  |  |  |
| CCGTCAATATATTCTT (sugars k2 d4 e3 k2 d5, PS) | 98% | 61% | 86% | 96% | target mRNA inhibition (A431, 0.0156 µM): 28%; target mRNA inhibition (A431, 0.04 µM): 50% |
| TCAGCTAAGACCAGTG (sugars k4 d9 k3, PS) |  | 53% | 78% | 89% |  |
| ATTCTCATGGTACAGG (sugars k3 d5 k3 d5, PS) | 97% |  |  |  |  |
| ATCAGATGGGTACTTC (sugars kkddddkdkdkddddd, PS) | 78% |  |  |  |  |
| TATATTTGATCCTCAA (sugars kddddkekekeddddd, PS) | 75% |  |  |  |  |
